Values of other authors in patent US20120135104A1, “Enhanced Absorption of Omega Fatty Acid Oils” (priority 2010, published 2012).

Details: single emulsifier

In the case of polyoxyethylene sorbitan monooleate, the HLB value is given as “about 15”.
